This note sets out measurements from patent publication US5273991A, “Imidazole-containing compositions and methods of use thereof analogs of distamycin” (Research Corporation Technologies, Inc., priority 1992, dated 1993).

Usually IC50 stands for the concentration that inhibits the measured activity by half.

For one test, the system named is LOX IMVI. The test is described as follows: NCI cytotoxicity screen (SRB). The note with it: 48 h; Melanoma LOX IMVI. The test is classed as cell-based, human.
The next test deals with CCRF-DEM. Put plainly: NCI cytotoxicity screen (SRB). The test is classed as cell-based, human. The note with it: 48 h; Leukemia CCRF-DEM.
The test system of another test is RPMI-8226. Put plainly: NCI cytotoxicity screen (SRB). The test is classed as cell-based, human.
Another test has as its system SNB-78. The test is described as follows: NCI cytotoxicity screen (SRB). The test is classed as cell-based, human.
A further test relates to calf thymus DNA. Put plainly: circular dichroism (CD) titration, calf thymus DNA. The test is classed as binding. The note with it: for isobestic point: calf thymus DNA; for binding site size: from saturation point r'~0.25; for saturation point r': moles of drug to moles of DNA base pairs. As to the method: The DNA binding properties of the present compounds were assessed by circular dichroism (CD) titration experiments. Methods for CD titration can be found, for example, in Zimmer et al. (1986) Prog. Biophys. Molec. Biol 47, 31. The conformation of DNA can be readily determined by CD experiments, and for B-DNA, characteristic positive and negative Cotton effects are observed at 260 and 245 nm, respectively.
The interaction of Compounds 6-10 to a number of DNAs [calf thymus, poly(dA dT) and poly(dG dC)] were analyzed by CD titration studies. All the CD titration experiments were performed using identical procedures, concentrations of DNA, and increments of drug:DNA ratios (or `r`, i.e. moles of drug to moles of DNA base pairs). Therefore, the differences observed in the CD spectra for the titration of each of the compounds to the polydeoxynucleotides may be directly compared to reflect their DNA binding properties.
All experiments were performed with a continuous flow of nitrogen purging the polarimeter. A 1 mm path length jacketed cell was used and all experiments were done at room temperature. Initially, DNA [0.02 μ moles (base pairs), 130 μL] was placed in the cell and the spectrum of the DNA alone was collected. Aliquots of drug were added and the spectra collected. The drug solutions were 1 mM and amounts of the drug added correspond to a drug to base pair ratio of 0.05, 0.10, 0.15, 0.20, 0.25, 0.30, 0.40, 0.50, 0.60, 0.80, 1.00. The scan parameters were set and standard for all experiments. The spectra were collected from 400 nm to 200 nm. The sensitivity was set at 1 mdeg and the scan speed was set at 20 nm per minute. Three scans were accumulated and automatically averaged by the computer. The λmax and ellipticity (mdeg) for each spectrum were collected from the raw scans and the final plots were smoothed by the noise reduction program on the computer. […] The induced CD band is presumably due to the uv absorption π to π^* transition of the drug in the drug:DNA complex. […] Therefore interaction of these drugs with DNA causes only minor conformational changes in the double helix.
Background: Circular dichroism is the unequal absorption of left and right circularly polarised light.

The test system of another test is 1GROV1. The test is described as follows: NCI cytotoxicity screen (SRB). The test is classed as cell-based, human.
The next test deals with 786-0. The test is described as follows: NCI cytotoxicity screen (SRB). The test is classed as cell-based, human.
A further test deals with A498. The test is described as follows: NCI cytotoxicity screen (SRB). The test is classed as cell-based, human.
In a further test the test system is HOP-18. Put plainly: NCI cytotoxicity screen (SRB). The test is classed as cell-based, human. The note with it: subsequent test date.
For another test, the system named is OVCAR-8. Put plainly: NCI cytotoxicity screen (SRB). The test is classed as cell-based, human.
For the next test, the system named is SNB-75. The test is described as follows: NCI cytotoxicity screen (SRB). The test is classed as cell-based, human.
The next test concerns TK-10. The test is described as follows: NCI cytotoxicity screen (SRB). The test is classed as cell-based, human.
A further test has as its system UACC-257. Put plainly: NCI cytotoxicity screen (SRB). The test is classed as cell-based, human.
A further test relates to UACC-62. Put plainly: NCI cytotoxicity screen (SRB). The test is classed as cell-based, human.

The structures appear in SMILES notation.

As to `CN(C)CCNC(=O)c1nc(NC(=O)c2nc(NC(=O)CCCc3ccc(N(CCCl)CCCl)cc3)cn2C)cn1C` [Compound 9, N-(N',N'-dimethylaminoethyl)-1-methyl-4-{4-[4,4-bis(2-chloroethyl)aminophenyl-1-butanamido]-1-methylimidazole-2-carboxamido}imidazole-2-carboxamide], the IC50 in the test with LOX IMVI turned out to be 49.5 µM.
On to `CN(C)CCNC(=O)c1nc(NC(=O)c2nc(NC(=O)c3nc(NC(=O)CCCc4ccc(N(CCCl)CCCl)cc4)cn3C)cn2C)cn1C` [Compound 10, N-(N',N'-dimethylaminoethyl)-1-methyl-4-{1-methyl-4-[4-(4,4-bis(2-chloroethyl)aminophenyl-1-butanamido)-1-methylimidazole-2-carboxamido]imidazole-2-carboxamido}imidazole-2-carboxamide], for which the IC50 in the test with CCRF-DEM came out at 9.67 µM; with LOX IMVI, 6.44 µM; with RPMI-8226 (48 h, Leukemia RPMI-8226), 9.5 µM; in the test on SNB-78 (48 h, CNS Cancer SNB-78) it was 9.75 µM.
Take `CN(C)CCNC(=O)c1nc(NC(=O)c2nc(NC(=O)c3ccc(N(CCCl)CCCl)cc3)cn2C)cn1C` [Compound 6, N-(N',N'-dimethylaminoethyl)-1-methyl-4-{4-[4,4-bis(2-chloroethyl)aminobenzamido]-1-methylimidazole-2-carboxamido}imidazole-2-carboxamide]: the “negative CD band, ellipticity” value in the test on calf thymus DNA (310 nm, r'=0.2, low drug concentration) is on record as 0.2 mdeg; in the test on calf thymus DNA (315 nm, r'>0.4, higher drug concentrations), ~ 3 mdeg. The “weak positive CD band, ellipticity” value in the test with calf thymus DNA (340 nm, r'=0.2, low drug concentration) was 0.8 mdeg. This molecule came in with an isobestic point in the test with calf thymus DNA of 320 nm. Also, the binding site size result in the test with calf thymus DNA is listed as “about four”. The “saturation point r'” value in the test on calf thymus DNA is ~ 0.25. Also, in the test on calf thymus DNA (r'>0.4, higher drug concentrations), the “positive CD band at 340 nm, in words” value is on record as “disappeared”. Further, the IC50 in the test on 1GROV1 (1GROV1, subsequent test date) turned out to be 59.6 µM; with 1GROV1 (48 h, Ovarian Cancer 1GROV1) it was 50 µM; with 786-0 (786-0, subsequent test date), 6.98 µM; in the test on 786-0 (48 h, Renal Cancer 786-0) it was 25.4 µM; in the test on A498 (48 h, Renal Cancer A498), 40.6 µM; in the test on A498 (A498, subsequent test date) it was 66 µM. In addition, the IC50 in the test on HOP-18 stood at 10.2 µM; in the test with OVCAR-8 (48 h, Ovarian Cancer OVCAR-8), 45.3 µM; in the test on OVCAR-8 (OVCAR-8, subsequent test date) it was 20.8 µM; with RPMI-8226 (48 h, Leukemia RPMI-8226), 30.5 µM; with RPMI-8226 (RPMI-8226, subsequent test date), 39.4 µM; with SNB-75 (48 h, CNS Cancer SNB-75), 41 µM. In addition, the half-maximal inhibitory concentration (IC50) was 41.7 µM in the test with SNB-75 (SNB-75, subsequent test date); 67.2 µM in the test with SNB-78 (48 h, CNS Cancer SNB-78); 78.9 µM in the test with SNB-78 (SNB-78, subsequent test date); 59.9 µM in the test on TK-10 (48 h, Renal Cancer TK-10); 56.2 µM with TK-10 (TK-10, subsequent test date); 7.03 µM in the test on UACC-257 (48 h, Melanoma UACC-257). The IC50 in the test on UACC-257 (UACC-257, subsequent test date) was found to be 57.6 µM; with UACC-62 (48 h, Melanoma UACC-62), 7.61 µM; in the test on UACC-62 (UACC-62, subsequent test date), 59.7 µM.
Turning to `CN(C)CCNC(=O)c1nc(NC(=O)c2nc(NC(=O)c3nc(NC(=O)c4ccc(N(CCCl)CCCl)cc4)cn3C)cn2C)cn1C` [Compound 7, N-(N',N'-dimethylaminoethyl)-1-methyl-4-{1-methyl-4-[4-(4,4-bis-(2-chloroethyl)aminobenzamido)-1-methylimidazole-2-carboxamido]imidazole-2-carboxamido}imidazole-2-carboxamide], the “weak negative CD band, ellipticity” value in the test on calf thymus DNA (335 nm, r'=0.2) is given as 0.5 mdeg. In the test on calf thymus DNA, this molecule registered an isobestic point of 300 nm. Besides, the binding site size entry in the test on calf thymus DNA is listed as “four”. Also, the “saturation point r'” value with calf thymus DNA is ~ 0.25. The IC50 stood at 0.51 µM in the test on 786-0 (786-0, subsequent test date); 7.76 µM with A498 (48 h, Renal Cancer A498); 0.61 µM with SNB-75 (48 h, CNS Cancer SNB-75); 4.2 µM in the test with TK-10 (48 h, Renal Cancer TK-10); 3.51 µM in the test with TK-10 (TK-10, subsequent test date).
